Data published in patent US9833497B2, “Human originated EGF domain proteins and use of the same” (CHENGDU SOURCEBIO LIMITED-LIABILITY COMPANY, priority 2013, dated 2017).

Legend:
Assay type in all cases: cell-based
[1] = tested on: Moraxella catarrhalis; assay: MIC against Gram-negative bacteria: Moraxella catarrhalis; conditions: for MIC M. catarrhalis / MIC (μg/mL) M. catarrhalis: 5×10^5 CFU/mL
Outline: (§1)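 Two-fold serial dilutions of each purified human EGF domain protein, three replicate wells per level, were combined with bacteria at a final 5×10^5 CFU/mL in LB. Cultures were shaken at 175 rpm, 37° C. The MIC was taken as the minimum concentration preventing growth.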

[2] = tested on: Klebsiella pneumonia; assay: MIC against Gram-negative bacteria: Klebsiella pneumonia; conditions: for MIC K. pneumonia / MIC (μg/mL) K. pneumonia: 5×10^5 CFU/mL
Outline: as §1

[3] = tested on: Citrobacter diversus; assay: MIC against Gram-negative bacteria: Citrobacter diversus; conditions: for MIC C. diversus / MIC (μg/mL) C. diversus: 5×10^5 CFU/mL
Outline: as §1

[4] = tested on: Serratia marcescens; assay: MIC against Gram-negative bacteria: Serratia marcescens; conditions: for MIC S. marcescens / MIC (μg/mL) S. marcescens: 5×10^5 CFU/mL
Outline: as §1

[5] = tested on: E. coli DH5α; assay: Antibacterial activity: MIC and growth curve against E. coli DH5α in 96-well plate; conditions: minimal inhibitory concentration against E. coli DH5α; 96-well plate, 5×10^5 CFU/mL, 37° C., judged after 8 h
Outline: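 MIC taken as lowest protein level with no bacterial growth, tracked by A600 every 30 min during 37 °C, 175 rpm culture. Two-fold protein series 50-12.5 μg/mL final, triplicate wells, against 5×10^5 CFU/mL of LB-washed mid-log cells.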

[6] = tested on: Proteus vulgaris; assay: MIC against Gram-negative bacteria: Proteus vulgaris; conditions: for MIC P. vulgaris / MIC (μg/mL) P. vulgaris: 5×10^5 CFU/mL
Outline: as §1

[7] = tested on: Aeromonas hydrophila; assay: MIC against Gram-negative bacteria: Aeromonas hydrophila; conditions: for MIC A. hydrophila / MIC (μg/mL) A. hydrophila: 5×10^5 CFU/mL
Outline: as §1

[8] = tested on: E. coli BL21; assay: MIC against Gram-negative bacteria: E. coli BL21; conditions: for MIC / MIC (μg/mL) E. coli BL21: E. coli BL21; for MIC E. coli BL21 / MIC (μg/mL) E. coli BL21: 5×10^5 CFU/mL
Outline: as §1

[9] = tested on: Proteus mirabilis; assay: MIC against Gram-negative bacteria: Proteus mirabilis; conditions: for MIC P. mirabilis / MIC (μg/mL) P. mirabilis: 5×10^5 CFU/mL
Outline: as §1

[10] = tested on: Pseudomonas aeruginosa; assay: MIC against Gram-negative bacteria: Pseudomonas aeruginosa; conditions: for MIC P. aeruginosa / MIC (μg/mL) P. aeruginosa: 5×10^5 CFU/mL
Outline: as §1

[11] = tested on: Enterobacter cloacae; assay: MIC against Gram-negative bacteria: Enterobacter cloacae; conditions: for MIC E. cloacae / MIC (μg/mL) E. cloacae: 5×10^5 CFU/mL
Outline: as §1

[12] = M. catarrhalis, 10 h cultivation at 37° C.
[13] = K. pneumonia, 10 h cultivation at 37° C.
[14] = C. diversus, 10 h cultivation at 37° C.
[15] = S. marcescens, 10 h cultivation at 37° C.
[16] = P. vulgaris, 10 h cultivation at 37° C.
[17] = A. hydrophila, 10 h cultivation at 37° C.
[18] = P. mirabilis, 10 h cultivation at 37° C.
[19] = P. aeruginosa, 10 h cultivation at 37° C.
[20] = E. cloacae, 10 h cultivation at 37° C.
[21] = Moraxella catarrhalis, 96-well plate, 37° C., 10 h
[22] = Klebsiella pneumonia, 96-well plate, 37° C., 10 h
[23] = Citrobacter diversus, 96-well plate, 37° C., 10 h
[24] = Serratia marcescens, 96-well plate, 37° C., 10 h
[25] = Proteus vulgaris, 96-well plate, 37° C., 10 h
[26] = Aeromonas hydrophila, 96-well plate, 37° C., 10 h
[27] = Proteus mirabilis, 96-well plate, 37° C., 10 h
[28] = Pseudomonas aeruginosa, 96-well plate, 37° C., 10 h
[29] = Enterobacter cloacae, 96-well plate, 37° C., 10 h
[30] = 10 h cultivation at 37° C., two-fold serial dilution

PRT902 (DIDDCRPNPCHNGGSCTDGINTAFCDCLPGFRGTFCE; listed as Homo sapiens)
MIC [1, 12]: 25 µg/mL
MIC [2, 13]: 25 µg/mL
MIC [3, 14]: 50 µg/mL
MIC [4, 15]: 50 µg/mL
MIC [5]: 50 µg/mL
MIC [6, 16]: 25 µg/mL
MIC [7, 17]: 12.5 µg/mL
MIC ([8]; 10 h cultivation at 37° C.): 25 µg/mL
MIC [9, 18]: 12.5 µg/mL
MIC [10, 19]: 12.5 µg/mL
MIC [11, 20]: 50 µg/mL

PRT610 (CSCDPSGSIDECNIETGRCVCKDNVEGFNCERCKPGFFNLESSNPRGCTP; listed as Homo sapiens)
MIC M. catarrhalis ([1]; 96-well plate, 37° C., 10 h): 12.5 µg/mL
MIC K. pneumonia ([2]; 96-well plate, 37° C., 10 h): 25 µg/mL
MIC C. diversus ([3]; 96-well plate, 37° C., 10 h): 50 µg/mL
MIC S. marcescens ([4]; 96-well plate, 37° C., 10 h): 50 µg/mL
MIC [5]: 50 µg/mL
MIC P. vulgaris ([6]; 96-well plate, 37° C., 10 h): 12.5 µg/mL
MIC A. hydrophila ([7]; 96-well plate, 37° C., 10 h): 12.5 µg/mL
MIC E. coli BL21 ([8]; 96-well plate, 37° C., 10 h): 25 µg/mL
MIC P. mirabilis ([9]; 96-well plate, 37° C., 10 h): 50 µg/mL
MIC P. aeruginosa ([10]; 96-well plate, 37° C., 10 h): 12.5 µg/mL
MIC E. cloacae ([11]; 96-well plate, 37° C., 10 h): 50 µg/mL

PRT102 (DRCLPNYCEHGGECSQSWSTFHCNCTNTGYRGATC; listed as Homo sapiens)
MIC (μg/mL) M. catarrhalis [1, 21]: 12.5 µg/mL
MIC (μg/mL) K. pneumonia [2, 22]: 12.5 µg/mL
MIC (μg/mL) C. diversus [3, 23]: 25 µg/mL
MIC (μg/mL) S. marcescens [4, 24]: 25 µg/mL
MIC [5]: 12.5 µg/mL
MIC (μg/mL) P. vulgaris [6, 25]: 12.5 µg/mL
MIC (μg/mL) A. hydrophila [7, 26]: 12.5 µg/mL
MIC (μg/mL) E. coli BL21 ([8]; 96-well plate, 37° C., 10 h): 12.5 µg/mL
MIC (μg/mL) P. mirabilis [9, 27]: 25 µg/mL
MIC (μg/mL) P. aeruginosa [10, 28]: 12.5 µg/mL
MIC (μg/mL) E. cloacae [11, 29]: 12.5 µg/mL

PRT1007 (HVNPCESRPCQNGATCMAQPSGYLCQCAPGYDGQNCS; listed as Homo sapiens)
MIC [1, 12]: 50 µg/mL
MIC [2, 13]: 50 µg/mL
MIC [3, 14]: 12.5 µg/mL
MIC [4, 15]: 25 µg/mL
MIC [5]: 25 µg/mL
MIC [6, 16]: 12.5 µg/mL
MIC [7, 17]: 50 µg/mL
MIC ([8]; 10 h cultivation at 37° C.): 12.5 µg/mL
MIC [9, 18]: 25 µg/mL
MIC [10, 19]: 25 µg/mL
MIC [11, 20]: 12.5 µg/mL

PRT750 (DIDECQVAPGEAPTCDHHCHNHLGGFYCSCRAGYVLHRNKRTCS; listed as Homo sapiens)
MIC (μg/mL) M. catarrhalis [1, 12]: 12.5 µg/mL
MIC (μg/mL) K. pneumonia [2, 13]: 25 µg/mL
MIC (μg/mL) C. diversus [3, 14]: 50 µg/mL
MIC (μg/mL) S. marcescens [4, 15]: 50 µg/mL
MIC [5]: 25 µg/mL
MIC (μg/mL) P. vulgaris [6, 16]: 12.5 µg/mL
MIC (μg/mL) A. hydrophila [7, 17]: 25 µg/mL
MIC (μg/mL) E. coli BL21 ([8]; 10 h cultivation at 37° C.): 12.5 µg/mL
MIC (μg/mL) P. mirabilis [9, 18]: 50 µg/mL
MIC (μg/mL) P. aeruginosa [10, 19]: 50 µg/mL
MIC (μg/mL) E. cloacae [11, 20]: 12.5 µg/mL

PRT1145 (KINDCTSIPCMNEGFCQKSAHGFTCICPRGYTGAYCE; listed as Homo sapiens)
MIC M. catarrhalis [1, 30]: 12.5 µg/mL
MIC K. pneumonia [2, 30]: 12.5 µg/mL
MIC C. diversus [3, 30]: 12.5 µg/mL
MIC S. marcescens [4, 30]: 12.5 µg/mL
MIC [5]: 12.5 µg/mL
MIC P. vulgaris [6, 30]: 25 µg/mL
MIC A. hydrophila [7, 30]: 12.5 µg/mL
MIC E. coli BL21 [8, 30]: 25 µg/mL
MIC P. mirabilis [9, 30]: 50 µg/mL
MIC P. aeruginosa [10, 30]: 12.5 µg/mL
MIC E. cloacae [11, 30]: 12.5 µg/mL

PRT69 (RRNFCDGRRCQNGGTCVNRWNMYLCECPLRFGGKNCE; listed as Homo sapiens)
MIC (μg/mL) M. catarrhalis [1, 21]: 12.5 µg/mL
MIC (μg/mL) K. pneumonia [2, 22]: 12.5 µg/mL
MIC (μg/mL) C. diversus [3, 23]: 25 µg/mL
MIC (μg/mL) S. marcescens [4, 24]: 12.5 µg/mL
MIC [5]: 12.5 µg/mL
MIC (μg/mL) P. vulgaris [6, 25]: 12.5 µg/mL
MIC (μg/mL) A. hydrophila [7, 26]: 12.5 µg/mL
MIC (μg/mL) E. coli BL21 ([8]; 96-well plate, 37° C., 10 h): 12.5 µg/mL
MIC (μg/mL) P. mirabilis [9, 27]: 12.5 µg/mL
MIC (μg/mL) P. aeruginosa [10, 28]: 25 µg/mL
MIC (μg/mL) E. cloacae [11, 29]: 25 µg/mL

PRT961 (DVDECASTPCRNGAKCVDQPDGYECRCAEGFEGTLCD; listed as Homo sapiens)
MIC [1, 12]: 25 µg/mL
MIC [2, 13]: 25 µg/mL
MIC [3, 14]: 25 µg/mL
MIC [4, 15]: 25 µg/mL
MIC [5]: 12.5 µg/mL
MIC [6, 16]: 12.5 µg/mL
MIC [7, 17]: 12.5 µg/mL
MIC ([8]; 10 h cultivation at 37° C.): 25 µg/mL
MIC [9, 18]: 50 µg/mL
MIC [10, 19]: 100 µg/mL
MIC [11, 20]: 12.5 µg/mL

PRT1026 (NKETCEHNHRQCSRHAFCTDYATGFCCHCQSKFYGNGKHCL; listed as Homo sapiens)
MIC [1, 12]: 50 µg/mL
MIC [2, 13]: 25 µg/mL
MIC [3, 14]: 12.5 µg/mL
MIC [4, 15]: 50 µg/mL
MIC [5]: 12.5 µg/mL
MIC [6, 16]: 25 µg/mL
MIC [7, 17]: 50 µg/mL
MIC ([8]; 10 h cultivation at 37° C.): 25 µg/mL
MIC [9, 18]: 12.5 µg/mL
MIC [10, 19]: 50 µg/mL
MIC [11, 20]: 12.5 µg/mL

PRT770 (FRDPCDPNPCQNDGICVNVKGMASCRCISGHAFFYTGERCQ; listed as Homo sapiens)
MIC (μg/mL) M. catarrhalis [1, 12]: 25 µg/mL
MIC (μg/mL) K. pneumonia [2, 13]: 12.5 µg/mL
MIC (μg/mL) C. diversus [3, 14]: 12.5 µg/mL
MIC (μg/mL) S. marcescens [4, 15]: 50 µg/mL
MIC [5]: 50 µg/mL
MIC (μg/mL) P. vulgaris [6, 16]: 12.5 µg/mL
MIC (μg/mL) A. hydrophila [7, 17]: 25 µg/mL
MIC (μg/mL) E. coli BL21 ([8]; 10 h cultivation at 37° C.): 12.5 µg/mL
MIC (μg/mL) P. mirabilis [9, 18]: 50 µg/mL
MIC (μg/mL) P. aeruginosa [10, 19]: 50 µg/mL
MIC (μg/mL) E. cloacae [11, 20]: 50 µg/mL

PRT186 (STLSCADSPCFNGGSCRERNQGANYACECPPNFTGSNCE; listed as Homo sapiens)
MIC (μg/mL) M. catarrhalis [1, 12]: 25 µg/mL
MIC (μg/mL) K. pneumonia [2, 13]: 25 µg/mL
MIC (μg/mL) C. diversus [3, 14]: 12.5 µg/mL
MIC (μg/mL) S. marcescens [4, 15]: 12.5 µg/mL
MIC [5]: 12.5 µg/mL
MIC (μg/mL) P. vulgaris [6, 16]: 25 µg/mL
MIC (μg/mL) A. hydrophila [7, 17]: 25 µg/mL
MIC (μg/mL) E. coli BL21 ([8]; 10 h cultivation at 37° C.): 50 µg/mL
MIC (μg/mL) P. mirabilis [9, 18]: 12.5 µg/mL
MIC (μg/mL) P. aeruginosa [10, 19]: 12.5 µg/mL
MIC (μg/mL) E. cloacae [11, 20]: 50 µg/mL
